Experimental findings from patent US4740518A, “4H-benzo(4,5)cyclohepta(1,2-B)thiophene derivatives” (Sandoz Ltd., priority 1983, dated 1988) are described below.

Experiment [1] in a line: Adjuvant arthritis test in the rat (Test A). Format: in vivo. As to conditions: for ED50: Rattus norvegicus. On the procedure:
For this test adjuvant arthritis is induced according to the method of Pearson and Wood, "Arthr. Rheum."2, 440 (1959). Compounds of the invention, e.g. compounds of formula I, are active in this test against developing and established arthritis at dosages of from 5 to 30 mg/kg/day.

Experiment [2] can be described thus: Arthritis pain test in the rat (Test C). Format: in vivo, male rats (OFA). As to conditions: for ED50: Rattus norvegicus, read-out: Arthritis pain ED50. On the procedure:
For this test male rats (OFA) of 110-120 g are treated with 0.1 ml of a Mycobacterium butyricum suspension in paraffin oil (0.6 mg Mycobact./0.1 ml oil) injected i.c. into the tail root. Marked arthritis in the hind-paws develops ca. 12 days after treatment. 30 mins. before administration of test-substance, control measurement is performed by flexing the foot joint of the right or left hind-paw using a Statham transducer until vocalisation occurs. […] Test substance is administered orally and the flexion procedure repeated 1,3 and 5 hours subsequently. The pressure at which vocalisation occurs is noted, the value recorded for each rat at each interval being the average value of three successive measurements. Animals in which the vocalisation threshold is doubled with respect to the control measurement are considered to be protected. The ED50 estimated for each post-treatment time according to the Probit method is taken as the dosage at which 50% of animals are protected. Compounds of the invention, e.g. compounds of formula I, are active in this test at dosages of from 3.2 to 100 mg/kg.

A short description of experiment [3]: Yeast-induced fever test in the rat (Test B). Format: in vivo, male rats (Sprague-Dawley). As to conditions: for ED50: Rattus norvegicus, read-out: Yeast fever ED50. On the procedure:
For this test male rats (Sprague-Dawley) of 130-180 g are fasted overnight. Body temperature is measured the following morning using a thermistor rectal probe connected to a telethermometer. 1 ml/100 g body weight of a 15% suspension of dried baker's yeast in saline is then injected s.c.. Body temperature is measured 2 hours later and this value taken as the initial temperature. 6 hours after yeast injection the test animals receive an oral dosage of the test substance suspended in 0.5% tragacanth or tragacanth alone (control). Body temperature is again measured after a further 2 hours.
Increase in temperature for each rat is calculated and expressed as a % of average increase determined in the control group (ca. 2.3° C. above normal). The ED50, estimated by regression analysis, is taken as the dosage at which increase in rectal temperature is 50% of that in the control group. Compounds of the invention, e.g. compounds of formula I, are active in this test at dosages of from 15 to 60 mg/kg.

What is called ED50 is the dose at which the effect has come halfway, by size or by number of responders. For the molecule `CC(=O)Oc1ccccc1C(=O)O` [B, acetylsalicyclic acid, reference compound], the 50% effective dose (ED50) turned out to be 140 mg/kg in experiment [1] (read-out: Developing arthritis ED50); 240 mg/kg in experiment [1] (read-out: Established arthritis ED50); 90 mg/kg in experiment [2] (po); 161 mg/kg in experiment [3] (po, 2 h).

For `COC1=Cc2ccccc2C(=CC(=O)O)c2ccsc21` [A, [10-methoxy-4H-benzo[4,5]cyclohepta[1,2-b]thiophen-4-ylidene]-acetic acid], the median effective dose (ED50) in experiment [1] (Test A, developing arthritis, compound A as cis/trans (Z,E) isomer mixture, read-out: Developing arthritis ED50) came out at 15 mg/kg; in experiment [1] (Test A, developing arthritis, using cis (Z) isomer, read-out: Developing arthritis ED50) it was 8 mg/kg; in experiment [1] (Test A, established arthritis, compound A as cis/trans (Z,E) isomer mixture, read-out: Established arthritis ED50), 15 mg/kg; in experiment [1] (Test A, established arthritis, using cis (Z) isomer, read-out: Established arthritis ED50), 16 mg/kg; in experiment [2] (Test C, oral, 50% of animals protected, compound A as cis (Z) isomer), 7 mg/kg; in experiment [3] (Test B, oral, temperature 2 h after dosing, compound A as cis (Z) isomer), 22 mg/kg. For the same molecule, in experiment [1] (pure cis-isomer), the “indicated daily dosage relative to acetylsalicylic acid, anti-inflammatory therapy” value is on record as 1/15. Further, in experiment [2] (cis-isomer), the “indicated daily dosage relative to acetylsalicylic acid, analgesic therapy” value is listed as 1/12. The “indicated daily dosage relative to acetylsalicylic acid, anti-pyretic therapy” value in experiment [3] (cis-isomer) is recorded as 1/7.
